In patent US20240116857A1 (St. Louis University, priority 2022, published 2024):

test system: E. coli BW25113; assay: MIC, 2-fold broth dilution, E. coli BW25113; assay type: cell-based, Escherichia coli; conditions: E. coli BW25113; asterisk in column 1-10

Row | Compound | MIC, μM 1-10
1 | 1,1′-((([1,1′-biphenyl]-4,4′-dicarbonyl)bis(azanediyl))bis(2-bromo-4,1-phenylene))bis(1-methylpiperidin-1-ium) [Example 88] | * (1-10)

same assay, conditions: E. coli BW25113; asterisk in column >50

Row | Compound | MIC, μM >50
2 | 4,4′-(([1,1′-biphenyl]-4,4′-dicarbonyl)bis(azanediyl))bis(1,2-dimethylpyridin-1-ium) [Example 34] | * (>50)

same assay, conditions: Escherichia coli, BW25113, read-out: MIC, μM >50

Row | Compound | MIC
3 | CN(C)c1ccc(NC(=O)c2ccc(-c3ccc(C(=O)Nc4ccc(N(C)C)c([N+](=O)[O-])c4)cc3)cc2)cc1[N+](=O)[O-] [Example 141] | > 50 µM

same assay, conditions: Escherichia coli; E. coli BW25113; asterisk in column 1-10; read-out: MIC, μM 1-10

Row | Compound | MIC
4 | COc1cc(NC(=O)c2ccc(-c3ccc(C(=O)Nc4ccc([N+](C)(C)C)c(F)c4)cc3)cc2)ccc1[N+](C)(C)C [Example 98, 2-fluoro-4-(4′-((3-methoxy-4-(trimethylammonio)phenyl)carbamoyl)-[1,1′-biphenyl]-4-carboxamido)-N,N,N-trimethylbenzenaminium] | 1 to 10 µM
5 | C[N+](C)(C)c1ccc(NC(=O)c2ccc(-c3ccc(C(=O)Nc4ccc([N+](C)(C)C)c(F)c4)cc3)cc2)cc1F [Example 77, 2-fluoro-4-(4′-{[3-fluoro-4-(trimethylazaniumyl)phenyl]carbamoyl}-[1,1′-biphenyl]-4-amido)-N,N,N-trimethylanilinium] | 1 to 10 µM
6 | C[n+]1ccc(Nc2ccc(NC(=O)c3ccc(C(=O)Nc4ccc(Nc5cc[n+](C)cc5)cc4)c(Br)c3)cc2)cc1 [Example 87, 4,4′-((((2-bromoterephthaloyl)bis(azanediyl))bis(4,1-phenylene))bis(azanediyl))bis(1-methylpyridin-1-ium)] | 1 to 10 µM
7 | C#CCCCCCCCCOc1cc(NC(=O)c2ccc(-c3ccc(C(=O)Nc4ccc([N+](C)(C)C)c(F)c4)cc3)cc2)ccc1[N+](C)(C)C [Example 116] | 1 to 10 µM

same assay, conditions: Escherichia coli; E. coli BW25113; asterisk in column 10-50; read-out: MIC, μM 10-50

Row | Compound | MIC
8 | Cc1c[n+](C)ccc1NC(=O)c1ccc(C(=O)Nc2ccc(Nc3cc[n+](C)cc3)cc2)cc1 [Example 55, 1,3-dimethyl-4-(4-((4-((1-methylpyridin-1-ium-4-yl)amino)phenyl)carbamoyl)benzamido)pyridin-1-ium] | 10 to 50 µM
9 | C[N+](C)(C)c1ccc(NC(=O)c2ccc(-c3ccc(C(=O)Nc4ccc([N+](C)(C)C)c(Br)c4)cc3)cc2)cc1Br [Example 86, 4,4′-(([1,1′-biphenyl]-4,4′-dicarbonyl)bis(azanediyl))bis(2-bromo-N,N,N-trimethylbenzenaminium)] | 10 to 50 µM
10 | C[n+]1ccc(NC(=O)c2ccc(C(=O)Nc3ccc(Nc4cc[n+](C)cc4)cc3)cc2)cc1 [Example 62, 1-methyl-4-(4-((4-((1-methylpyridin-1-ium-4-yl)amino)phenyl)carbamoyl)benzamido)pyridin-1-ium] | 10 to 50 µM
11 | C[n+]1ccc(NC(=O)c2ccc(C(=O)Nc3ccc(Nc4cc[n+](C)cc4)c(F)c3)cc2)cc1 [Example 66, 1-methyl-4-(4-((3-fluoro-4-((1-methylpyridin-1-ium-4-yl)amino)phenyl)carbamoyl)benzamido)pyridin-1-ium] | 10 to 50 µM
12 | C[n+]1ccc(NC(=O)c2ccc(-c3ccc(C(=O)Nc4cc[n+](C)cc4)cc3)cc2)cc1 [Example 8] | 10 to 50 µM

same assay, conditions: Escherichia coli; E. coli BW25113; asterisk in column >50; read-out: MIC, μM >50

Row | Compound | MIC
13 | Cc1cc(NC(=O)c2ccc(-c3ccc(C(=O)Nc4ccc([N+](C)(C)C)c(C)c4)cc3)cc2)ccc1[N+](C)(C)C [Example 37, 4,4′-(([1,1′-biphenyl]-4,4′-dicarbonyl)bis(azanediyl))bis(N,N,N,2-tetramethylbenzenaminium)] | > 50 µM
14 | Cc1cc(C(=O)Nc2ccc(N(C)C)c(F)c2)ccc1-c1ccc(C(=O)Nc2ccc(N(C)C)c(F)c2)cc1 [Example 90, N^4,N^4′-bis(4-(dimethylamino)-3-fluorophenyl)-2-methyl-[1,1′-biphenyl]-4,4′-dicarboxamide] | > 50 µM
15 | CN(C)c1ccc(CNC(=O)c2ccc(-c3ccc(C(=O)NCc4ccc(N(C)C)cc4)cc3)cc2)cc1 [Example 101, N^4,N^4′-bis(4-(dimethylamino)benzyl)-[1,1′-biphenyl]-4,4′-dicarboxamide] | > 50 µM
16 | C[n+]1ccc(Nc2ccc(NC(=O)c3ccc(-c4ccccc4)cc3)cc2)cc1 [Example 18, 4-((4-([1,1′-biphenyl]-4-ylcarboxamido)phenyl)amino)-1-methylpyridin-1-ium] | > 50 µM
17 | O=C(Nc1ccc(Nc2ccncc2)cc1)c1ccc(C(=O)Nc2ccc(Nc3ccncc3)cc2)c(Cl)c1 [Example 19, 2-chloro-N^1,N^4-bis(4-(pyridin-4-ylamino)phenyl)terephthalamide] | > 50 µM
18 | O=C(Nc1ccncc1)[C@H]1CC[C@H](C(=O)Nc2ccncc2)CC1 [Example 5, (E)-N^1,N^4-di(pyridin-4-yl)cyclohexane-1,4-dicarboxamide] | > 50 µM
19 | Cc1cc(C(=O)Nc2ccc([N+](C)(C)C)c(F)c2)ccc1-c1ccc(C(=O)Nc2ccc([N+](C)(C)C)c(F)c2)cc1 [Example 91, 4,4′-((2-methyl-[1,1′-biphenyl]-4,4′-dicarbonyl)bis(azanediyl))bis(2-fluoro-N,N,N-trimethylbenzenaminium)] | > 50 µM
20 | Cc1cc(NC(=O)c2ccc(-c3ccc(C(=O)Nc4ccc(N(C)C)c(C)c4)cc3)cc2)ccc1N(C)C [Example 36, N^4,N^4′-bis(4-(dimethylamino)-3-methylphenyl)-[1,1′-biphenyl]-4,4′-dicarboxamide] | > 50 µM
21 | O=C(Nc1ccc(Oc2ccncc2)cc1)c1ccc(C(=O)Nc2ccc(Oc3ccncc3)cc2)c([N+](=O)[O-])c1 [Example 83, 2-nitro-N^1,N^4-bis(4-(pyridin-4-yloxy)phenyl)terephthalamide] | > 50 µM
22 | O=C(Nc1ccc(Nc2ccncc2)cc1)c1ccc(C(=O)Nc2ccc(Nc3ccncc3)cc2)c(Br)c1 [Example 68, 2-bromo-N^1,N^4-bis(4-(pyridin-4-ylamino)phenyl)terephthalamide] | > 50 µM
23 | C#CCCCC[N+](C)(C)c1ccc(NC(=O)c2ccc(-c3ccc(C(=O)Nc4ccc([N+](C)(C)C)c(F)c4)cc3)cc2)cc1F [Example 121] | > 50 µM
24 | O=C(Nc1ccc(Cc2ccncc2)cc1)c1ccc(C(=O)Nc2ccc(Cc3ccncc3)cc2)cc1 [Example 12, N^1,N^4-bis(4-(pyridin-4-ylmethyl)phenyl)terephthalamide] | > 50 µM
25 | Cc1cnccc1NC(=O)c1ccc(-c2ccc(C(=O)Nc3ccncc3C)cc2)cc1 [Example 28, N^4,N^4′-bis(3-methylpyridin-4-yl)-[1,1′-biphenyl]-4,4′-dicarboxamide] | > 50 µM
26 | CN(C)c1ccc(NC(=O)c2ccc(-c3ccc(C(=O)Nc4ccc(N(C)C)cc4)cn3)nc2)cc1 [Example 72, N^5,N^5′-bis(4-(dimethylamino)phenyl)-[2,2′-bipyridine]-5,5′-dicarboxamide] | > 50 µM
27 | CN(C)c1ccc(NC(=O)c2ccc(-c3ccc(C(=O)Nc4ccc([N+](C)(C)C)c(F)c4)cc3)cc2)cc1F [Example 125] | > 50 µM
28 | O=C(NCc1ccncc1)c1ccc(-c2ccc(C(=O)NCc3ccncc3)cc2)cc1 [Example 92, N^4,N^4′-bis(pyridin-4-ylmethyl)-[1,1′-biphenyl]-4,4′-dicarboxamide] | > 50 µM
29 | C[N+](C)(C)c1ccc(NC(=O)c2ccc(-c3ccc(C(=O)Nc4ccc([N+]5(C)CCCCC5)cc4)cc3)cc2)cc1 [Example 144] | > 50 µM
30 | CN(C)c1ccc(NC(=O)c2ccc(Cc3ccc(C(=O)Nc4ccc(N(C)C)cc4)cc3)cc2)cc1 [Example 49, 4,4′-methylenebis(N-(4-(dimethylamino)phenyl)benzamide)] | > 50 µM
31 | COC(=O)Cn1cc(CCC[N+](C)(C)c2ccc(NC(=O)c3ccc(-c4ccc(C(=O)Nc5ccc([N+](C)(C)C)c(F)c5)cc4)cc3)cc2F)nn1 [Example 106] | > 50 µM
32 | C[N+](C)(C)c1ccc(NC(=O)c2ccc(-c3ccc(C(=O)Nc4ccc([N+](C)(C)C)c(F)c4)cc3)cc2)cc1 [Example 130] | > 50 µM
33 | C#CCN(C)c1ccc(NC(=O)c2ccc(-c3ccc(C(=O)Nc4ccc([N+](C)(C)C)c(F)c4)cc3)cc2)cc1F [Example 104] | > 50 µM
34 | O=C(Nc1ccncc1)c1ccc(C(=O)Nc2ccncc2)cc1 [Example 1, N^1,N^4-di(pyridin-4-yl)terephthalamide] | > 50 µM
35 | CN(C)c1ccc(NC(=O)c2ccc(-c3ccc(C(=O)Nc4ccc(N(C)C)c(C(F)(F)F)c4)cc3)cc2)cc1C(F)(F)F [Example 74, N^4,N^4′-bis(4-(dimethylamino)-3-(trifluoromethyl)phenyl)-[1,1′-biphenyl]-4,4′-dicarboxamide] | > 50 µM
36 | C[N+](C)(C)c1ccc(NC(=O)c2ccc(-c3ccc(C(=O)Nc4ccc([N+](C)(C)C)c(OCCCCCCCCc5cn(CCOCCOCCONC(=O)CCCC[C@@H]6SC[C@@H]7NC(=O)N[C@@H]76)nn5)c4)cc3)cc2)cc1F [Example 135] | > 50 µM
37 | C#CCCOc1cc(NC(=O)c2ccc(-c3ccc(C(=O)Nc4ccc(N(C)C)c(F)c4)cc3)cc2)ccc1N(C)C [Example 99, N^4-(3-(but-3-yn-1-yloxy)-4-(dimethylamino)phenyl)-N^4′-(4-(dimethylamino)-3-fluorophenyl)-[1,1′-biphenyl]-4,4′-dicarboxamide] | > 50 µM
38 | Cc1cc(C(=O)Nc2ccc(N(C)C)cc2)ccc1-c1ccc(C(=O)Nc2ccc(N(C)C)cc2)cc1 [Example 40, N^4,N^4′-bis(4-(dimethylamino)phenyl)-2-methyl-[1,1′-biphenyl]-4,4′-dicarboxamide] | > 50 µM
39 | O=C(Nc1ccc(Nc2ccncc2)cc1)c1ccc(Cc2ccc(C(=O)Nc3ccc(Nc4ccncc4)cc3)cc2)cc1 [Example 48] | > 50 µM
40 | C[N+](C)(C)c1ccc(CNC(=O)c2ccc(-c3ccc(C(=O)NCc4ccc([N+](C)(C)C)cc4)cc3)cc2)cc1 [Example 102, 4,4′-((([1,1′-biphenyl]-4,4′-dicarbonyl)bis(azanediyl))bis(methylene))bis(N,N,N-trimethylbenzenaminium)] | > 50 µM
41 | C#CCCCCCCCCOc1cc(NC(=O)c2ccc(-c3ccc(C(=O)Nc4ccc(N(C)C)c(F)c4)cc3)cc2)ccc1N(C)C [Example 117] | > 50 µM
